# Tests used:
# [1] = tested on: LoVo; experiment: Cytotoxicity against human LoVo cells; type: functional, cell-based
# [2] = tested on: KB; experiment: Cytotoxicity against human KB cells; type: functional, cell-based
compound,measurement,setting,value
CO[C@@H]1[C@@H](OC)[C@@H](O)[C@H](O[C@H]2C[C@@]3(O)CC(=O)O[C@](C)(CC/C=C/C=C/Br)C[C@@H](O)[C@H](C)CC[C@H](O3)[C@@H]2C)O[C@H]1C [LYNGBYALOSIDE B],IC50,[1],15 µM
same,IC50,[2],4.3 µM

# Source: ChEMBL document CHEMBL1150174, “Lyngbyaloside B, a new glycoside macrolide from a Palauan marine cyanobacterium, Lyngbya sp” (J Nat Prod, 2002)
